Assay results: patent publication US20200281928A1, “VITAMIN B1 IN HIGH DOSES FOR USE IN THE MEDICAL TREATMENT OF MOTOR SYMPTOMS OF SOME SPORADIC NEURODEGENERATIVE DISEASES, OF GENETIC ORIGIN, AND OF CLUSTER HEADACHE AND OF MIGRAINE HEADACHE” (priority 2017, published 2020)
Read-outs that look alike come from different tables or passages of the source.

How the values were obtained:
[1] = system: Cluster Headache (also called Horton headache); details: person
Experimental: The patient was evaluated with Cluster Headache Quality of Life (CHQ) scale before starting the treatment and every 15 days after starting the treatment which started in December 2016. The score of this scale ranges from 28 (absence of symptoms) to 140 (maximum deficit, maximum negative influence in daily life activities).
The patient started the therapy with 250 mg of thiamine orally, by increasing by 250 mg every three days.

[2] = system: Multisystemic Atrophy (MSA) Type Parkinson (Type P); details: for Improvement of motor symptoms: UPDRS portion III, two months of therapy; for UPDRS portion III after therapy: five 100 mg/ml vials intramuscularly per week plus low doses of other group b vitamins and magnesium, two months, scale 0-56
Experimental: We treated four patients affected by such pathology, two women and two men with five vials intramuscularly per week of vitamin B1. One vial included 100 mg/ml of thiamine. The injection was performed each morning for the first five days of the week. The dose was determined empirically based upon the disease progression rapidity.
Moreover, low doses of all other vitamins of group b, including folic acid, 150 mg of magnesium citrate and 150 mg of magnesium malate, were associated to the treatment.
The patients were evaluated with UPDRS (Unified Parkinson's Disease Rating Scale), scale validated for all Parkinson forms.
The diagnoses were made by Italian primary neurological centres based upon anamnestic, clinical, evolutionary, neuroradiological and neurophysiological data.

Migraine Headache = details: for MIDAS after treatment: after 30 days, scale 0-25
Experimental: Migraine headache is the headache form characterized by a recurrent pain involving one only side of the head. The pulsating headache can last from four hours until three days and it is accompanied by nausea, vomiting, photophobia. The causes are poorly known. We studied two female patients starting from January 2017.
The patients were evaluated with Migraine Disability Assessment Test (MIDAS) evaluation scale before starting the treatment and every 30 days after starting the treatment, which started in January 2017. The score of this scale ranges from 0 (absence of symptoms) to 25 (maximum disability, maximum negative influence in the daily life activities).
The thiamine dose was 300 mg orally each morning.
The thiamine dose was 500 mg every morning orally.

Structure (SMILES): Cc1ncc(C[n+]2csc(CCO)c2C)c(N)n1 [vitamin B1, thiamine]
- time from the beginning until the headache attacks wholly disappeared ([1]; at the dose of 750 mg per day orally, printed as within about 8 days): ≤ 8 days
- effect of an attempt of interrupting the treatment ([1]; oral thiamine interrupted): quick re-appearance of headache episodes
- outcome of symptoms under continued treatment ([1]; oral thiamine, maintained by continuing the treatment (more than five months)): complete regression of the symptoms
- CHQ after treatment ([1]; thiamine orally, 250 mg increased by 250 mg every three days to 750 mg per day, after 15 days, before treatment 82, scale 28 (absence of symptoms) to 140): 28 scores
- Improvement of motor symptoms ([2]; patient N1 (person eleven)): 30.8%
- UPDRS portion III after therapy ([2]; patient N1 (person eleven), before therapy 26): 18 scores
- Improvement of motor symptoms ([2]; patient N2 (person ten)): 11.8%
- UPDRS portion III after therapy ([2]; patient N2 (person ten), before therapy 34): 30 scores
- Improvement of motor symptoms ([2]; patient N3 (person three)): 55.5%
- UPDRS portion III after therapy ([2]; patient N3 (person three), before therapy 9): 5 scores
- Improvement of motor symptoms ([2]; patient N4): 47.6%
- UPDRS portion III after therapy ([2]; patient N4, before therapy 21): 10 scores
- days of treatment after which the regression of the episodes was already present (Migraine Headache; migraine patients on oral thiamine, maintained by continuing the same treatment): 7 days
- MIDAS after treatment (Migraine Headache; patient N1, 300 mg orally each morning, before treatment 19): 0 scores
- MIDAS after treatment (Migraine Headache; patient N2 (person ten), 500 mg every morning orally, before treatment 20): 0 scores
